Data published in article PMC10215804, “Exploring Alternative Pathways to Target Bacterial Type II Topoisomerases Using NBTI Antibacterials: Beyond Halogen-Bonding Interactions” (Antibiotics, 2023).
Values after ≈ are worked out from the molar mass of the structure shown. Read-outs that look alike come from different tables or passages of the source.

Key:
Test in all cases: MIC, broth microdilution
[1] = test system: S. aureus (ATCC 29213); type: cell-based; details: Staphylococcus aureus, ATCC29213; Table S3; read-out: MIC (μM) S. aureus (ATCC 29213)
Experimental: (§1) For the determination of minimum inhibitory concentrations (MIC), the broth microdilution method was used in 96-well plate format, according to the guidelines of the Clinical and Laboratory Standards Institute and the recommendations of the European Committee on Antimicrobial Susceptibility Testing (EUCAST). The dilutions of the bacterial suspension of the specific bacterial strain, corresponding to the 0.5 McFarland turbidity standard, were prepared with […] Mueller–Hinton broth with TES (Thermo Fisher Scientific) to obtain an end inoculum of 10^5 CFU/mL. The compounds were dissolved in DMSO and mixed with the inoculum. […] The MIC was determined as the lowest concentration of antibiotic that prevented visible bacterial growth. Tetracycline was used as a positive control on each test plate.

[2] = test system: A. baumannii; type: cell-based; details: Acinetobacter baumannii
Experimental: as §1

[3] = test system: E. coli (ATCC 25922); type: cell-based; details: Escherichia coli, ATCC25922
Experimental: as §1

[4] = test system: E. coli D22; type: cell-based; details: Escherichia coli, D22; Table S3; lpxC mutation; read-out: MIC (μM) E. coli D22
Experimental: as §1

[5] = test system: VRE; type: cell-based; details: Enterococcus
Experimental: as §1

[6] = test system: E. faecalis RDK 057; type: cell-based; details: Enterococcus faecalis, RDK057
Experimental: as §1

[7] = test system: K. pneumoniae; type: cell-based; details: Klebsiella pneumoniae
Experimental: as §1

[8] = test system: E. coli N43 (CGSC# 5583); type: cell-based; details: Escherichia coli
Experimental: as §1

[9] = test system: P. aeruginosa RDK 184; type: cell-based; details: Pseudomonas aeruginosa, RDK184
Experimental: as §1

[10] = test system: MRSA (QA-11.2); type: cell-based, S. aureus; details: Staphylococcus aureus
Experimental: as §1

[11] = test system: MRSA (QA-11.7); type: cell-based, S. aureus; details: Staphylococcus aureus
Experimental: as §1

[12] = test system: MRSA(QA-12.1); type: cell-based, S. aureus; details: Staphylococcus aureus
Experimental: as §1

**Q.** Which MIC [1] does the source give for O=c1ccc2ncc(=O)n3c2n1C[C@H]3CN1CCC(NCc2cc3c(cn2)OCCC3)CC1 [Gepo, gepotidacin, reference compound] here?
**A.** 0.32 µM (≈ 0.144 µg/mL)

**Q.** And the MIC ([2]; Table S3, read-out: MIC (μM) A. baumannii)?
**A.** 20.5 µM

**Q.** And the MIC ([2]; read-out: MIC A. baumannii)?
**A.** 8 µg/mL

**Q.** What about the MIC ([3]; Table S3, read-out: MIC (μM) E. coli (ATCC 25922)) of the same molecule?
**A.** 2.56 µM

**Q.** What about the MIC ([3]; read-out: MIC E. coli (ATCC 25922)) of the same molecule?
**A.** 1 µg/mL

**Q.** What about the MIC [4] of the same molecule?
**A.** 0.32 µM (≈ 0.144 µg/mL)

**Q.** What about the MIC ([5]; Table S3, read-out: MIC (μM) VRE) of the same molecule?
**A.** 2.56 µM

**Q.** What about the MIC ([5]; read-out: MIC VRE) of the same molecule?
**A.** 1 µg/mL

**Q.** And the MIC ([6]; Table S3, read-out: MIC (μM) E. faecalis DRK 057)?
**A.** 5.12 µM

**Q.** And the MIC ([6]; read-out: MIC E. faecalis RDK 057)?
**A.** 2 µg/mL

**Q.** And the MIC ([7]; Table S3, read-out: MIC (μM) K. pneumoniae)?
**A.** 20.5 µM

**Q.** And the MIC ([7]; read-out: MIC K. pneumoniae)?
**A.** 8 µg/mL

**Q.** What about the MIC ([8]; read-out: MIC (μM) E. coli N43) of the same molecule?
**A.** 0.041 µM

**Q.** What about the MIC ([8]; read-out: MIC E. coli N43 (CGSC# 5583)) of the same molecule?
**A.** 0.016 µg/mL

**Q.** What about the MIC ([9]; Table S3, read-out: MIC (μM) P. aeruginosa RDK 184) of the same molecule?
**A.** 20.5 µM

**Q.** And the MIC ([9]; read-out: MIC P. aeruginosa RDK 184)?
**A.** 8 µg/mL

**Q.** And the MIC ([10]; Table S3, read-out: MIC (μM) MRSA (QA-11.2))?
**A.** 1.28 µM

**Q.** What about the MIC ([10]; read-out: MIC MRSA (QA-11.2)) of the same molecule?
**A.** 0.5 µg/mL

**Q.** What about the MIC ([11]; Table S3, read-out: MIC (μM) MRSA (QA-11.7)) of the same molecule?
**A.** 0.161 µM

**Q.** What about the MIC ([11]; strain resistant to cefoxitin, ciprofloxacin, clindamycin, erythromycin, tetracycline, thiamulin, trimethoprim, read-out: MIC MRSA (QA-11.7)) of the same molecule?
**A.** 0.063 µg/mL

**Q.** And the MIC ([12]; Table S3, read-out: MIC (μM) MRSA(QA-12.1))?
**A.** 0.32 µM

**Q.** What about the MIC ([12]; strain resistant to cefoxitin, gentamicin, kanamycin, rifampicin, streptomycin, sulfamethoxazole, tetracycline, read-out: MIC MRSA(QA-12.1)) of the same molecule?
**A.** 0.125 µg/mL
